“Also recorded” adds a separate entry of the source.

One test addresses T1, rMAO-A (Rattus norvegicus, UniProt P21396).
T1 construct: using a suspension of crude rat brain mitochondria as enzyme source; from tissue; host or cells: rat brain (crude mitochondrial suspension)
T1 sequence (P21396 1-526): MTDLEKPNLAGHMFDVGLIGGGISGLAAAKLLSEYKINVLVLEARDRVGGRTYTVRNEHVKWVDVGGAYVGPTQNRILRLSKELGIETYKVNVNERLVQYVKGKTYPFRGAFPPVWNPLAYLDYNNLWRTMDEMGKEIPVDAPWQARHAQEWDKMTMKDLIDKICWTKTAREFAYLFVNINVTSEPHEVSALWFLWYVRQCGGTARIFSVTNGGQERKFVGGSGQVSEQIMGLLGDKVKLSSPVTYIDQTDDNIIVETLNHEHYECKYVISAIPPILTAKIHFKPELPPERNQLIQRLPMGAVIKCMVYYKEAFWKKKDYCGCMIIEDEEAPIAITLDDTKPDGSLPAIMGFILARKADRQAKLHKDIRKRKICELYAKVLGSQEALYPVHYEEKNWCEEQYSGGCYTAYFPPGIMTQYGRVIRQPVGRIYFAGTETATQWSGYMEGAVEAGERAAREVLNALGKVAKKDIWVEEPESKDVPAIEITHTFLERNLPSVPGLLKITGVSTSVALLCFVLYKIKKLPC
Description: Inhibition of rMAO-A in crude rat brain mitochondria (5-HT substrate, HPLC-ED). Format: biochemical. As to conditions: substrate 5-HT. As to the method: (§1) Fourteen derivatives differing in the substitution pattern of the cinnamyl benzene ring were studied, these compounds were tested on rat MAO-A and B to determine their inhibitory activity MAO. A general screening was carried out at 10 µM finding moderate activity for some of the compounds against rMAO-B but none against rMAO-A. Thus, five molecules were identified as possibly selective IMAO-B.
(§2) The effect of coumarin derivatives on MAO-A and MAO-B were measured using a suspension of crude rat brain mitochondria as enzyme source. 4-Dimethylaminophenethylamine (4-DMAPEA, 2.5 µM) and 5-hydroxytryptamine (5-HT, […]) were used as substrates selective of MAO-B or MAO-A, respectively. Evaluation of the test compounds on rMAO activity was executed by measuring their effects on the production of 4-dimethylaminophenylacetic acid (DMAPAA) by rMAO-B and 5-hydroxyindoleacetic acid (5-HIAA) by rMAO-A with O2 using HPLC-ED (L-7110 LaChrom and amperometric detector L-3500 LaChrom Recipe, Hitachi, (Tokyo, Japan) (for more detail see methodological references). The IC50 values (average ± SD was measured in two independent experiments each in triplicate) were assessed representing percentage of inhibition in function of the negative logarithm of different inhibitor concentrations (10^−4 to 10^−8) using the GraphPad Prism software.

The next test concerns the target T2, rMAO-B (Rattus norvegicus, UniProt P19643).
T2 construct: using a suspension of crude rat brain mitochondria as enzyme source; from tissue; host or cells: rat brain (crude mitochondrial suspension)
T2 sequence (P19643 1-520): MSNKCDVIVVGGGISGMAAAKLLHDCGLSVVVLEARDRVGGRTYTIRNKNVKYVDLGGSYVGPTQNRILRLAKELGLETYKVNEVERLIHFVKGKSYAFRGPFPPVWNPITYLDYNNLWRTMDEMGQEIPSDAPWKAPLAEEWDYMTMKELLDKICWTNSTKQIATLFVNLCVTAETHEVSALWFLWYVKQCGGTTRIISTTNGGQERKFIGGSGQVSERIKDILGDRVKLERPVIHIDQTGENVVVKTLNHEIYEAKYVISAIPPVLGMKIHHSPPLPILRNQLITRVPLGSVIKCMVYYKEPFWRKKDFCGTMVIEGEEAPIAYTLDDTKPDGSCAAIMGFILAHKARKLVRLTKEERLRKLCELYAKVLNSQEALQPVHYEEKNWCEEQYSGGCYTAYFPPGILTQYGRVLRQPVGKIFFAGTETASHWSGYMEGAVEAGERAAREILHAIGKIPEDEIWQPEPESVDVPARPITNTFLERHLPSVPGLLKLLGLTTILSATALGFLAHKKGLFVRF
Description: Inhibition of rMAO-B in crude rat brain mitochondria (4-DMAPEA substrate, HPLC-ED). The test is classed as biochemical. As to conditions: for IC50: crude rat brain mitochondria, substrate 4-DMAPEA 2.5 µM. As to the method: as §1, §2

As a reminder, the IC50 is the concentration that gives 50% inhibition. With `COc1ccc2cc(C(=O)C=Cc3ccccc3)c(=O)oc2c1` [ChC1, 3-Cinnamoyl-7-methoxy-2H-chromen-2-one], the IC50 at rMAO-A and on rMAO-B was over 10 µM in each case.
`COc1ccc2cc(C(=O)/C=C/c3ccccc3O)c(=O)oc2c1` [ChC2, (E)-3-(3-(2-Hydroxyphenyl)acryloyl)-7-methoxy-2H-chromen-2-one]: at rMAO-A, the IC50 is over 10 µM. At rMAO-B, the “rMAO-B inhibitory activity in vitro (in words)” value is given as “loss of the inhibitory activity; also recorded: does not show in vitro activity” and the IC50 is over 10 µM.
Take `COc1ccc2cc(C(=O)/C=C/c3ccccc3OC)c(=O)oc2c1` [ChC3, (E)-7-methoxy-3-(3-(2-methoxyphenyl)acryloyl)-2H-chromen-2-one]: the IC50 against rMAO-A and on rMAO-B was over 10 µM throughout.
As for `COc1ccc2cc(C(=O)/C=C/c3cccc(O)c3)c(=O)oc2c1` [ChC4, (E)-3-(3-(3-hydroxyphenyl)acryloyl)-7-methoxy-2H-chromen-2-one], the values for the IC50 against rMAO-A and at rMAO-B were over 10 µM and 0.76 ± 0.08 µM, respectively.
`COc1cccc(/C=C/C(=O)c2cc3ccc(OC)cc3oc2=O)c1` [ChC5, (E)-7-methoxy-3-(3-(3-methoxyphenyl)acryloyl)-2H-chromen-2-one]: the IC50 against rMAO-A is over 10 µM; at rMAO-B, 9.63 ± 0.9 µM. Also, the “Fold lower IMAO activity than ChC4” value on rMAO-B (rMAO-B, relative to ChC4) is recorded as “approximately 12 fold”.
`COc1ccc(/C=C/C(=O)c2cc3ccc(OC)cc3oc2=O)cc1` [ChC6, (E)-7-methoxy-3-(3-(4-methoxyphenyl)acryloyl)-2H-chromen-2-one]: the IC50 on rMAO-A is over 10 µM; against rMAO-B, 6.96 ± 0.07 µM.
For `COc1ccc(OC)c(/C=C/C(=O)c2cc3ccc(OC)cc3oc2=O)c1` [ChC8, (E)-3-(3-(2,5-dimethoxyphenyl)acryloyl)-7-methoxy-2H-chromen-2-one], the IC50 on rMAO-A and against rMAO-B was over 10 µM throughout.
Regarding `COc1ccc2cc(C(=O)/C=C/c3ccc4c(c3)OCO4)c(=O)oc2c1` [ChC9, (E)-3-(3-(benzo[d][1,3]dioxol-5-yl)acryloyl)-7-methoxy-2H-chromen-2-one], the results for the IC50 against rMAO-A and against rMAO-B were over 10 µM and 3.71 ± 0.68 µM, respectively.
On to `COc1ccc2cc(C(=O)/C=C/c3ccc(O)c(OC)c3)c(=O)oc2c1` [ChC10], for which the IC50 against rMAO-A and against rMAO-B was over 10 µM in each case. Besides, the “rMAO-B inhibitory activity in vitro (in words)” value on rMAO-B is “loss of the inhibitory activity”.
For the molecule `COc1ccc2cc(C(=O)/C=C/c3ccc(SC)cc3)c(=O)oc2c1` [ChC11], the IC50 against rMAO-A was over 10 µM; against rMAO-B, 5.88 ± 0.57 µM.
As to `COc1ccc2cc(C(=O)/C=C/c3cc(Br)c(OC)c(Br)c3)c(=O)oc2c1` [ChC12, (E)-3-(3-(3,5-dibromo-4-methoxyphenyl)acryloyl)-7-methoxy-2H-chromen-2-one], the IC50 at rMAO-A and against rMAO-B was over 10 µM each time.
As to `COc1ccc2cc(C(=O)/C=C/c3ccc(N(C)C)cc3)c(=O)oc2c1` [ChC13, (E)-3-(3-(4-(dimethylamino)phenyl)acryloyl)-7-methoxy-2H-chromen-2-one], the concentration for half-maximal inhibition (IC50) against rMAO-A and on rMAO-B was over 10 µM each time.
With `COc1ccc2cc(C(=O)/C=C/c3ccc(Br)cc3)c(=O)oc2c1` [ChC14, (E)-3-(3-(4-bromophenyl)acryloyl)-7-methoxy-2H-chromen-2-one], the IC50 against rMAO-A and against rMAO-B was over 10 µM throughout.
